Data as given in paper PMC7561186, “Rational design of balanced dual-targeting antibiotics with limited resistance” (PLoS Biology, 2020).
≈ marks a conversion by molar mass, not a printed value. Read-outs that look alike come from different tables or passages of the source.

Test system: S. aureus clinical isolates
Experiment: microbe, parasite or virus in culture
Type: cell-based
Settings: Staphylococcus aureus, read-out: MIC

## C[C@H]1COc2c(N3CCN(C)CC3)c(F)cc3c(=O)c(C(=O)O)cn1c23 [Levofloxacin]
ATCC 29213 / MSSA, S. aureus ATCC 29213, MSSA / VSSA, test date 2018-10-25 (three repeat lines)
  MIC: 0.25 µg/mL (≈ 0.692 µM)
ATCC 29213 / MSSA, S. aureus ATCC 29213, MSSA / VSSA, test date 2018-11-07
  MIC: 0.25 µg/mL (≈ 0.692 µM)
MRSA / NRS 3 / VISA, S. aureus IHMA 1308243, NRS3, MRSA / VISA
  MIC: 32 µg/mL (≈ 88.6 µM)
MRSA / NRS 4 / VISA, S. aureus IHMA 649380, NRS4, MRSA / VISA
  MIC: 16 µg/mL (≈ 44.3 µM)
MRSA / NRS 18 / VISA, S. aureus IHMA 649386, NRS18, MRSA / VISA
  MIC: 16 µg/mL (≈ 44.3 µM)
MRSA / NRS 19 / VISA, S. aureus IHMA 649387, NRS19, MRSA / VISA
  MIC: 32 µg/mL (≈ 88.6 µM)
MRSA / NRS 21 / VISA, S. aureus IHMA 649388, NRS21, MRSA / VISA
  MIC: 8 µg/mL (≈ 22.1 µM)
MRSA / NRS 22 / USA600 / VISA, S. aureus IHMA 649389, NRS22, MRSA / VISA, USA600
  MIC: 16 µg/mL (≈ 44.3 µM)
MRSA / NRS 23 / VISA, S. aureus IHMA 649390, NRS23, MRSA / VISA
  MIC: 16 µg/mL (≈ 44.3 µM)
MRSA / NRS 24 / VISA, S. aureus IHMA 649391, NRS24, MRSA / VISA
  MIC: 64 µg/mL (≈ 177 µM)
MRSA / NRS 26, S. aureus IHMA 649392, NRS26, MRSA / VSSA
  MIC: 8 µg/mL (≈ 22.1 µM)
MRSA / NRS 27 / VISA, S. aureus IHMA 1308248, NRS27, MRSA / VISA
  MIC: 32 µg/mL (≈ 88.6 µM)
MRSA / NRS 29 / VISA, S. aureus IHMA 1308250, NRS29, MRSA / VISA
  MIC: 16 µg/mL (≈ 44.3 µM)
MRSA / NRS 37 / VISA, S. aureus IHMA 1308251, NRS37, MRSA / VISA
  MIC: 32 µg/mL (≈ 88.6 µM)
MRSA / NRS 54, S. aureus IHMA 1308253, NRS54, MRSA / VSSA* (*Expected VAN intermediate, confirmed VAN susceptible twice), test date 2018-11-07
  MIC: 8 µg/mL (≈ 22.1 µM)
MRSA / NRS 56 / VISA, S. aureus IHMA 1308254, NRS56, MRSA / VISA
  MIC: 8 µg/mL (≈ 22.1 µM)
MRSA / USA100 / VRSA, S. aureus IHMA 672230, VRS1, MRSA / VRSA, USA100
  MIC: 32 µg/mL (≈ 88.6 µM)
MRSA / USA100 / VRSA, S. aureus IHMA 672231, VRS2, MRSA / VRSA, USA100
  MIC: 32 µg/mL (≈ 88.6 µM)
MRSA / USA100 / VRSA, S. aureus IHMA 672234, VRS4, MRSA / VRSA, USA100
  MIC: > 64 µg/mL
MRSA / USA100 / VRSA, S. aureus IHMA 672235, VRS5, MRSA / VRSA, USA100
  MIC: 64 µg/mL (≈ 177 µM)
MRSA / USA100 / VRSA, S. aureus IHMA 672237, VRS7, MRSA / VRSA, USA100
  MIC: 64 µg/mL (≈ 177 µM)
MRSA / USA100 / VRSA, S. aureus IHMA 672238, VRS8, MRSA / VRSA, USA100
  MIC: 16 µg/mL (≈ 44.3 µM)
MRSA / USA100 / VRSA, S. aureus IHMA 672239, VRS9, MRSA / VRSA, USA100
  MIC: 64 µg/mL (≈ 177 µM)
MRSA / USA100 / VRSA, S. aureus IHMA 1308256, VRS10, MRSA / VRSA, USA100
  MIC: > 64 µg/mL
MRSA / USA100 / VRSA, S. aureus IHMA 1308258, VRS11b, MRSA / VRSA, USA100
  MIC: > 64 µg/mL
MRSA / USA800 / VRSA, S. aureus IHMA 672233, VRS3b, MRSA / VRSA, USA800
  MIC: 16 µg/mL (≈ 44.3 µM)
MRSA, S. aureus IHMA 1569509, MRSA / VSSA
  MIC: 4 µg/mL (≈ 11.1 µM)
MRSA, S. aureus IHMA 1575268, MRSA / VSSA
  MIC: 32 µg/mL (≈ 88.6 µM)
MRSA, S. aureus IHMA 1575629, MRSA / VSSA
  MIC: 8 µg/mL (≈ 22.1 µM)
MRSA, S. aureus IHMA 1577820, MRSA / VSSA
  MIC: > 64 µg/mL
MRSA, S. aureus IHMA 1580300, MRSA / VSSA
  MIC: 16 µg/mL (≈ 44.3 µM)
MRSA, S. aureus IHMA 1580940, MRSA / VSSA
  MIC: 0.5 µg/mL (≈ 1.38 µM)
MRSA, S. aureus IHMA 1582100, MRSA / VSSA
  MIC: 32 µg/mL (≈ 88.6 µM)
MRSA, S. aureus IHMA 1583795, MRSA / VSSA
  MIC: 32 µg/mL (≈ 88.6 µM)
MRSA, S. aureus IHMA 1584223, MRSA / VSSA
  MIC: 8 µg/mL (≈ 22.1 µM)
MRSA, S. aureus IHMA 1585316, MRSA / VSSA
  MIC: 32 µg/mL (≈ 88.6 µM)
MRSA, S. aureus IHMA 1586780, MRSA / VSSA
  MIC: 16 µg/mL (≈ 44.3 µM)
MRSA, S. aureus IHMA 1587322, MRSA / VSSA
  MIC: 0.25 µg/mL (≈ 0.692 µM)
MRSA, S. aureus IHMA 1588127, MRSA / VSSA
  MIC: 16 µg/mL (≈ 44.3 µM)
MRSA, S. aureus IHMA 1591462, MRSA / VSSA
  MIC: 32 µg/mL (≈ 88.6 µM)
MRSA, S. aureus IHMA 1592755, MRSA / VSSA
  MIC: 16 µg/mL (≈ 44.3 µM)
MRSA, S. aureus IHMA 1592776, MRSA / VSSA
  MIC: 0.25 µg/mL (≈ 0.692 µM)
MRSA, S. aureus IHMA 1597106, MRSA / VSSA
  MIC: 16 µg/mL (≈ 44.3 µM)
MRSA, S. aureus IHMA 1602095, MRSA / VSSA
  MIC: 0.25 µg/mL (≈ 0.692 µM)
MRSA, S. aureus IHMA 1611170, MRSA / VSSA
  MIC: 0.25 µg/mL (≈ 0.692 µM)
MRSA, S. aureus IHMA 1611612, MRSA / VSSA
  MIC: 32 µg/mL (≈ 88.6 µM)
MRSA, S. aureus IHMA 1612228, MRSA / VSSA
  MIC: 8 µg/mL (≈ 22.1 µM)
MRSA, S. aureus IHMA 1620441, MRSA / VSSA
  MIC: 32 µg/mL (≈ 88.6 µM)
MRSA, S. aureus IHMA 1621638, MRSA / VSSA
  MIC: 0.25 µg/mL (≈ 0.692 µM)
MRSA, S. aureus IHMA 1622252, MRSA / VSSA
  MIC: 16 µg/mL (≈ 44.3 µM)
MRSA, S. aureus IHMA 1622527, MRSA / VSSA
  MIC: 0.25 µg/mL (≈ 0.692 µM)
MRSA, S. aureus IHMA 1666371, MRSA / VSSA
  MIC: > 64 µg/mL
MRSA, S. aureus IHMA 1695391, MRSA / VSSA
  MIC: > 64 µg/mL
MRSA, S. aureus IHMA 1703428, MRSA / VSSA
  MIC: 0.25 µg/mL (≈ 0.692 µM)
MRSA, S. aureus IHMA 1720350, MRSA / VSSA
  MIC: 0.25 µg/mL (≈ 0.692 µM)
MRSA, S. aureus IHMA 1732989, MRSA / VSSA
  MIC: 64 µg/mL (≈ 177 µM)
MRSA, S. aureus IHMA 1742231, MRSA / VSSA
  MIC: > 64 µg/mL
MRSA, S. aureus IHMA 1766357, MRSA / VSSA
  MIC: 16 µg/mL (≈ 44.3 µM)
MSSA / NRS 12 / VISA, S. aureus IHMA 1308244, NRS12, MSSA / VISA
  MIC: 0.5 µg/mL (≈ 1.38 µM)
MSSA / NRS 13 / VISA, S. aureus IHMA 1308245, NRS13, MSSA / VISA
  MIC: 0.5 µg/mL (≈ 1.38 µM)
MSSA / NRS 14 / VISA, S. aureus IHMA 1308246, NRS14, MSSA / VISA
  MIC: 0.5 µg/mL (≈ 1.38 µM)
MSSA / NRS 17 / VISA, S. aureus IHMA 1308247, NRS17, MSSA / VISA
  MIC: 16 µg/mL (≈ 44.3 µM)
MSSA / NRS 28 / VISA, S. aureus IHMA 1308249, NRS28, MSSA / VISA
  MIC: 32 µg/mL (≈ 88.6 µM)
MSSA / NRS 52, S. aureus IHMA 1308252, NRS52, MSSA / VSSA* (*Expected VAN intermediate, confirmed VAN susceptible twice), test date 2018-11-07
  MIC: 0.25 µg/mL (≈ 0.692 µM)
MSSA / USA100 / VRSA, S. aureus IHMA 672236, VRS6, MSSA / VRSA, USA100
  MIC: 32 µg/mL (≈ 88.6 µM)
MSSA, S. aureus IHMA 1563826, MSSA / VSSA
  MIC: 0.25 µg/mL (≈ 0.692 µM)
MSSA, S. aureus IHMA 1565492, MSSA / VSSA
  MIC: 0.25 µg/mL (≈ 0.692 µM)
MSSA, S. aureus IHMA 1569499, MSSA / VSSA
  MIC: 0.25 µg/mL (≈ 0.692 µM)
MSSA, S. aureus IHMA 1569754, MSSA / VSSA
  MIC: 16 µg/mL (≈ 44.3 µM)
MSSA, S. aureus IHMA 1574202, MSSA / VSSA
  MIC: 0.25 µg/mL (≈ 0.692 µM)
MSSA, S. aureus IHMA 1575652, MSSA / VSSA
  MIC: 0.25 µg/mL (≈ 0.692 µM)
MSSA, S. aureus IHMA 1575779, MSSA / VSSA
  MIC: 0.25 µg/mL (≈ 0.692 µM)
MSSA, S. aureus IHMA 1576329, MSSA / VSSA
  MIC: 0.25 µg/mL (≈ 0.692 µM)
MSSA, S. aureus IHMA 1577800, MSSA / VSSA
  MIC: 0.25 µg/mL (≈ 0.692 µM)
MSSA, S. aureus IHMA 1578560, MSSA / VSSA
  MIC: 0.25 µg/mL (≈ 0.692 µM)
MSSA, S. aureus IHMA 1580233, MSSA / VSSA
  MIC: 0.25 µg/mL (≈ 0.692 µM)
MSSA, S. aureus IHMA 1580925, MSSA / VSSA
  MIC: 0.25 µg/mL (≈ 0.692 µM)
MSSA, S. aureus IHMA 1580955, MSSA / VSSA
  MIC: 0.25 µg/mL (≈ 0.692 µM)
MSSA, S. aureus IHMA 1582586, MSSA / VSSA
  MIC: 0.5 µg/mL (≈ 1.38 µM)
MSSA, S. aureus IHMA 1582691, MSSA / VSSA
  MIC: 0.25 µg/mL (≈ 0.692 µM)
MSSA, S. aureus IHMA 1584230, MSSA / VSSA
  MIC: 0.25 µg/mL (≈ 0.692 µM)
MSSA, S. aureus IHMA 1587279, MSSA / VSSA
  MIC: 0.25 µg/mL (≈ 0.692 µM)
MSSA, S. aureus IHMA 1591459, MSSA / VSSA
  MIC: 16 µg/mL (≈ 44.3 µM)
MSSA, S. aureus IHMA 1592749, MSSA / VSSA
  MIC: 0.25 µg/mL (≈ 0.692 µM)
MSSA, S. aureus IHMA 1592751, MSSA / VSSA
  MIC: 0.25 µg/mL (≈ 0.692 µM)
MSSA, S. aureus IHMA 1594297, MSSA / VSSA
  MIC: 0.25 µg/mL (≈ 0.692 µM)
MSSA, S. aureus IHMA 1597120, MSSA / VSSA
  MIC: 0.25 µg/mL (≈ 0.692 µM)
MSSA, S. aureus IHMA 1597125, MSSA / VSSA
  MIC: 0.25 µg/mL (≈ 0.692 µM)
MSSA, S. aureus IHMA 1599157, MSSA / VSSA
  MIC: 0.25 µg/mL (≈ 0.692 µM)
MSSA, S. aureus IHMA 1599506, MSSA / VSSA
  MIC: 0.25 µg/mL (≈ 0.692 µM)
MSSA, S. aureus IHMA 1602078, MSSA / VSSA
  MIC: 32 µg/mL (≈ 88.6 µM)
MSSA, S. aureus IHMA 1604586, MSSA / VSSA
  MIC: 0.25 µg/mL (≈ 0.692 µM)
MSSA, S. aureus IHMA 1604609, MSSA / VSSA
  MIC: 0.25 µg/mL (≈ 0.692 µM)
MSSA, S. aureus IHMA 1609919, MSSA / VSSA
  MIC: 0.25 µg/mL (≈ 0.692 µM)
MSSA, S. aureus IHMA 1622864, MSSA / VSSA
  MIC: 0.25 µg/mL (≈ 0.692 µM)
MSSA, S. aureus IHMA 1626392, MSSA / VSSA
  MIC: 0.25 µg/mL (≈ 0.692 µM)
MSSA, S. aureus IHMA 1713793, MSSA / VSSA
  MIC: 0.25 µg/mL (≈ 0.692 µM)
